Values quoted from earlier work as cited in patent US20040235879A1, “Method for treatment of chemotherapy-induced diarrhea” (priority 2003, published 2004).
Structures can show the parent of a compound that is named as a salt.

Experiments:
[1] = cited from earlier work
P-gp (ABCB1) = P-gp (ABCB1) (Homo sapiens, UniProt P08183); details: cited from earlier work
BCRP/MXR/ABCP (ABCG2) = molecular target: T1, BCRP/MXR/ABCP (ABCG2) (Homo sapiens, UniProt Q9UNQ0); details: cited from earlier work
T1 sequence (Q9UNQ0 1-655): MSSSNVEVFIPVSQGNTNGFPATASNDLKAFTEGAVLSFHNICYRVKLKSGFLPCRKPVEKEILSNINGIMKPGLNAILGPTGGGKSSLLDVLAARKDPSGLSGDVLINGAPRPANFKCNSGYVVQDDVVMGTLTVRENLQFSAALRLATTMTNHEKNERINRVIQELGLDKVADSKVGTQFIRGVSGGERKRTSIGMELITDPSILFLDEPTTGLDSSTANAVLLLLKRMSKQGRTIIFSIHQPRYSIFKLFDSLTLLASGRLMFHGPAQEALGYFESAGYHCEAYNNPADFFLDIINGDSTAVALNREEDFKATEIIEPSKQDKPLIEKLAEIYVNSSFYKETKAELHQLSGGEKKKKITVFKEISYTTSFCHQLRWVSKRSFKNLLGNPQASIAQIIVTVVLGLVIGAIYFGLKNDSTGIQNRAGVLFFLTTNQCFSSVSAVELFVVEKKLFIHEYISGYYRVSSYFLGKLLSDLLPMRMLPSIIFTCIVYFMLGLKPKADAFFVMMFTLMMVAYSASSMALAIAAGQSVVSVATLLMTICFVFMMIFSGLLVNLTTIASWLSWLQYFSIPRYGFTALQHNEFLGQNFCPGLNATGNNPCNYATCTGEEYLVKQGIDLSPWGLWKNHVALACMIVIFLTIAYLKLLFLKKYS

MRP2 (ABCC2) = MRP2 (ABCC2) (Homo sapiens, UniProt Q92887); details: cited from earlier work
MRP2 (ABCC2), sequence (Q92887 whole entry, species assumed): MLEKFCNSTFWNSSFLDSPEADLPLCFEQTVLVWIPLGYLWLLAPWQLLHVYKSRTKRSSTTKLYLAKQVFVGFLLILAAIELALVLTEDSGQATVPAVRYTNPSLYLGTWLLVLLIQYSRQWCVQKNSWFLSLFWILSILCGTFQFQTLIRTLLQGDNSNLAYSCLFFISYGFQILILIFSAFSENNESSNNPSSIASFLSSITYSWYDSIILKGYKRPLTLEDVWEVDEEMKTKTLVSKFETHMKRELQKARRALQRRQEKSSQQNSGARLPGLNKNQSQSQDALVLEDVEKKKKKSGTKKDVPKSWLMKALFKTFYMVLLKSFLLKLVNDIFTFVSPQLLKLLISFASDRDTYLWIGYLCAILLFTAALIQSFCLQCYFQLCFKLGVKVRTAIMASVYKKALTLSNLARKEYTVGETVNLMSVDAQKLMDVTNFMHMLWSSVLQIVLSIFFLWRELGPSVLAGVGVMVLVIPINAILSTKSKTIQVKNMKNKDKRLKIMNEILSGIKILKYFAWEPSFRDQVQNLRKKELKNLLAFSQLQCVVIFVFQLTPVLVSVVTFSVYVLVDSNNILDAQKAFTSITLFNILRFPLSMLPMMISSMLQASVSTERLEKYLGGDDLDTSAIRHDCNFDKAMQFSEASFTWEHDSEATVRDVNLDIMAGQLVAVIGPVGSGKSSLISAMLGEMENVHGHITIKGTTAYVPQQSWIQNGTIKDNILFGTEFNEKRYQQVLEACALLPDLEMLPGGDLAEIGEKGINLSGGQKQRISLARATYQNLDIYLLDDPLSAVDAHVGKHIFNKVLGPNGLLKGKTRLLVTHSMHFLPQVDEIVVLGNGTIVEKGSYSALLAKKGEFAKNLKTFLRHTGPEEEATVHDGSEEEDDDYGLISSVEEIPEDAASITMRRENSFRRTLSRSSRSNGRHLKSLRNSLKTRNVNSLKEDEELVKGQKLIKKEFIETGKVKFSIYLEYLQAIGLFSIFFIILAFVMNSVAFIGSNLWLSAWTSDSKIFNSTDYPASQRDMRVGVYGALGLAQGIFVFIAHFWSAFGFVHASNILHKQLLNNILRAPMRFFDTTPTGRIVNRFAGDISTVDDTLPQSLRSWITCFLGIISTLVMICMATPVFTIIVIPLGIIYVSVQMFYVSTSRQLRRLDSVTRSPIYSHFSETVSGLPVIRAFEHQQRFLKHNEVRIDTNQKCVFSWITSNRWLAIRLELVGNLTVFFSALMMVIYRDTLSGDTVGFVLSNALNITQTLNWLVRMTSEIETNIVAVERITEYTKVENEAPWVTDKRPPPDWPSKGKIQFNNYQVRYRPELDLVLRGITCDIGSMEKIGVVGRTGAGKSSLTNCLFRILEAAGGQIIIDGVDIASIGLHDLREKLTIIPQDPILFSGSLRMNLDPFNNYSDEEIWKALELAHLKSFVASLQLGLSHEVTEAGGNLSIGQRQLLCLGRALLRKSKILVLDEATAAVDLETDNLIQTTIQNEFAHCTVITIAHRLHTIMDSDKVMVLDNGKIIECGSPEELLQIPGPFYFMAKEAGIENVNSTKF

P-gp (ABCB1), sequence (P08183 whole entry, species assumed): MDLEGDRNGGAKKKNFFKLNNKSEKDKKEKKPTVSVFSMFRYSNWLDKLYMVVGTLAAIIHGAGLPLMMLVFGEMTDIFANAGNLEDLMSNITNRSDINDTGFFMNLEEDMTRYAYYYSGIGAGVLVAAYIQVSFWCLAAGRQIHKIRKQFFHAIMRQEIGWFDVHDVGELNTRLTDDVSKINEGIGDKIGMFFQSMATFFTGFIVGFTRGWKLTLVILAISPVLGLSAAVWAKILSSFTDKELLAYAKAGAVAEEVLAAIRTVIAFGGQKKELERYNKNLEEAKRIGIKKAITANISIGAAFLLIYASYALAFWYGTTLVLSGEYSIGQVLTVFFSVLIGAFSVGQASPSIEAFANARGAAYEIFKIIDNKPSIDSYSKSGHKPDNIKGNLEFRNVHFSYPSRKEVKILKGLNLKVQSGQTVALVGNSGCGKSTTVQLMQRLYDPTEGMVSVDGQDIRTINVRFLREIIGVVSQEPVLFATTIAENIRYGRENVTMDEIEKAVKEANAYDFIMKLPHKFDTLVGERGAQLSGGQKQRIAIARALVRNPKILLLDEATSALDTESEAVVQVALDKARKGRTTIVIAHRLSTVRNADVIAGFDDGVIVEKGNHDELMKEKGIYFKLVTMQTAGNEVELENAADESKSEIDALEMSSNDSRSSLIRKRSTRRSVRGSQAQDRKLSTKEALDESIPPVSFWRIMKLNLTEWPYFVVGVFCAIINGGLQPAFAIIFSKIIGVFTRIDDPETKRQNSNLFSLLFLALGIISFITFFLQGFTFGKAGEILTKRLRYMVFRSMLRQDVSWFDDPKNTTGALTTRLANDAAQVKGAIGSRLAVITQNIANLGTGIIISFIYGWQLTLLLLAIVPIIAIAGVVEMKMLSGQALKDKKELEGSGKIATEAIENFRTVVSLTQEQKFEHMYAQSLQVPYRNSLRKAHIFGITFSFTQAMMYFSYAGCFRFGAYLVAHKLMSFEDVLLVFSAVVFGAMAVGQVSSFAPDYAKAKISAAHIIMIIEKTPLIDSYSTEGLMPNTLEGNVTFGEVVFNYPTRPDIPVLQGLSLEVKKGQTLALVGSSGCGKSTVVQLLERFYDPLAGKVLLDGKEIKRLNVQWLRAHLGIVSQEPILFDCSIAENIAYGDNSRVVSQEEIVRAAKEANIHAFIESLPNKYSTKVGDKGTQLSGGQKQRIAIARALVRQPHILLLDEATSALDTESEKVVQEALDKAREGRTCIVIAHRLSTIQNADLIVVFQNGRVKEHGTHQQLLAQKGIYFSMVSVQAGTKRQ

O=c1[nH]cc(F)c(=O)[nH]1 [5-fluorouracil]
patients with severe or life-threatening diarrhea ([1]; 5-fluorouracil alone): About 8%
frequency of severe or life-threatening diarrhea ([1]; 5-fluorouracil combined with leucovorin): up to 25%

CCc1c2c(nc3ccc(OC(=O)N4CCC(N5CCCCC5)CC4)cc13)-c1cc3c(c(=O)n1C2)COC(=O)[C@]3(O)CC [irinotecan, [1,4′-Bipiperidine]-1′-carboxylic acid (4S)-4,11-diethyl-3,4,12,14-tetrahydro-4-hydroxy-3,14-dioxo-1H-pyrano[3′,4′:6,7]indolizino[1,2-b]quinolin-9-yl ester]
substrate of P-gp (ABCB1) (P-gp (ABCB1)): substrate
substrate of BCRP/MXR/ABCP (ABCG2) (BCRP/MXR/ABCP (ABCG2)): substrate
substrate of MRP2 (ABCC2) (MRP2 (ABCC2)): substrate

CCc1c2c(nc3ccc(OC(=O)N4CCC(N5CCCCC5)CC4)cc13)-c1cc3c(c(=O)n1C2)COC(=O)[C@]3(O)CC [CPT-11, Irinotecan hydrochloride]
patients requiring hospitalization because of diarrhea ([1]; diarrhea alone or in combination with other gastrointestinal disturbances): more than 18%
